Laboratory results: BindingDB's records for doi:10.1016/0024-3205(96)00449-3 (Eli Lilly, 1996)

Tests used:
[1] = target: 5-hydroxytryptamine receptor 2B (Homo sapiens, UniProt P41595)
[2] = target: T1, 5-hydroxytryptamine receptor 2C (Homo sapiens, UniProt P28335)
T1 sequence (P28335 whole entry): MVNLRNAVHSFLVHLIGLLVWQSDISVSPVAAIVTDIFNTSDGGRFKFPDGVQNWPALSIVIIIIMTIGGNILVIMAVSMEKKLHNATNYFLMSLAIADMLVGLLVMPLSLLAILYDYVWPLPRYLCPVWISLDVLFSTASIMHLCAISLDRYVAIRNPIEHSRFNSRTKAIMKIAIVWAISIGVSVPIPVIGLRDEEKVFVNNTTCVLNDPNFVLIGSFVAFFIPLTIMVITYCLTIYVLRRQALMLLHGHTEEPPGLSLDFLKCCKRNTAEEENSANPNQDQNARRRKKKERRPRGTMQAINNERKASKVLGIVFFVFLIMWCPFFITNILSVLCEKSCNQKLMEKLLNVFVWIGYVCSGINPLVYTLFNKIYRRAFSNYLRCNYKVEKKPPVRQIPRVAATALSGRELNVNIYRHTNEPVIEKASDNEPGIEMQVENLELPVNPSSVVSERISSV

[3] = target: 5-hydroxytryptamine receptor 2A (Homo sapiens, UniProt P28223)
5-hydroxytryptamine receptor 2A, sequence (P28223 whole entry): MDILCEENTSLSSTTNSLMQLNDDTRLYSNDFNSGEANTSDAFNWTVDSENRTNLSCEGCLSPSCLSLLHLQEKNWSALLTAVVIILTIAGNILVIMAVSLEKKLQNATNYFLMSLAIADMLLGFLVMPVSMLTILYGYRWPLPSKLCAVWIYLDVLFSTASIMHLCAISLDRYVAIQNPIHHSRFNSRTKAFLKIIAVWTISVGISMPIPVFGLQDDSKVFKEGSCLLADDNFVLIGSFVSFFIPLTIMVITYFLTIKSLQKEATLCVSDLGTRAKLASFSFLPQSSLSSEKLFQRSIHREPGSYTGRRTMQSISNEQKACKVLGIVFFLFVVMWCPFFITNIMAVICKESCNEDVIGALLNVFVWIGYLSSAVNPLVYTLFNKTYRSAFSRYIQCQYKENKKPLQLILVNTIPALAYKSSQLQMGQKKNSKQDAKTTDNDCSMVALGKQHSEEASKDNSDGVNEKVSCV

5-hydroxytryptamine receptor 2B, sequence (P41595 whole entry): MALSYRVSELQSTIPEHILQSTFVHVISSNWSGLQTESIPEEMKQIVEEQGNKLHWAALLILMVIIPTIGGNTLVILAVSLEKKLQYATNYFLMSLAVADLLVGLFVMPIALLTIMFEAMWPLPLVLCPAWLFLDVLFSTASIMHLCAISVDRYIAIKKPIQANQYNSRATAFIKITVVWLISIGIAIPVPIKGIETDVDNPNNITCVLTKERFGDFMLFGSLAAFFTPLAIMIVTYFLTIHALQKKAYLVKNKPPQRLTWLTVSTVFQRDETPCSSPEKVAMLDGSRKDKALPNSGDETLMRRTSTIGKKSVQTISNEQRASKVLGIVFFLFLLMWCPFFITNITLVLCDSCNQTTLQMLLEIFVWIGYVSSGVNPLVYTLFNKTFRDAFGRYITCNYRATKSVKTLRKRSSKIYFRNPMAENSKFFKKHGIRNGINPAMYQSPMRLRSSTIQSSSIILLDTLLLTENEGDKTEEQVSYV

Row | Ki [1] [µM] | Ki [2] [µM] | Ki [3] [µM] | SMILES
1 | 7.91 | 9.73 | – | CCc1c(COc2ccc(C=O)cc2)ccc(C(C)=O)c1O [LY 335102]
2 | 2.93 | 1.19 | 0.839 | CCCc1cc(C(C)(C)C)ccc1Oc1cccc(C=NN=C(N)N)c1 [LY 320951]
3 | 1.21 | 0.168 | 0.065 | CCCc1c(COc2ccc(C=NN=C(N)N)cc2)ccc(C(C)=O)c1O [LY 314228]
4 | 0.465 | 0.188 | 0.248 | CCCc1c(COc2ccc(C=NN=C(N)N)c(OC)c2)ccc(C(=O)CC)c1O [LY 320950]
5 | 0.388 | 0.401 | 0.569 | Cc1ccc(C)c(COc2ccc(C=NN=C(N)N)cc2)c1 [LY 334359]
6 | 1.64 | 0.257 | 0.096 | CCCc1c(COc2ccc(C=NN=C(N)N)cc2)ccc(C(=O)CC)c1O [LY 320954]
7 | 0.472 | 1.66 | 0.137 | NC(N)=NN=C(c1ccccc1)C1CCC(Cl)S1 (stereo not drawn) [LY 063518]
8 | 0.477 | 0.091 | 0.179 | NC(N)=NN=Cc1cccc(OCc2ccc(C(=O)c3ccccc3)cc2)c1 [LY 334362]
